{"source": "patent US9034895B2", "about": "“Composition and methods for treating glioblastoma” (University of Washington Through its Center for …, priority 2010, dated 2015)", "key": {"U251 flank tumors": {"system": "U251 flank tumors", "experiment": "U251 flank tumors in nude mice, tumor growth", "type": "in vivo", "experimental": "Nude mice that had been implanted with U251 flank tumors were treated with a daily regimen of JWH-451. This experiment was performed as follow: 10^6 U251 cells were implanted in the flanks of nude mice and the tumor was allowed to grow until it reached a size of 250 mm^3, at which point the mice were enrolled in daily treatment. Tumor growth was then measured and expressed as a function of initial tumor size."}, "DBT tumors": {"system": "DBT tumors", "experiment": "Lymphocyte and brain macrophage invasion of DBT tumors implanted in mouse brain", "type": "in vivo, mice (BALB/c)", "conditions": "daily i.p. (40 mg/Kg per FIG. 7), tumors implanted three weeks in mouse brain", "experimental": "Effect of JWH-451 on the immune cell invasion of syngenic mouse model of astrocytomas tumors (mouse astrocytoma cell implanted into the brain of wild type mice hosts with intact immune systems) was measured. Briefly, mice (BALB/c, 8 week-old, male, Charles River) were used for this study and housed under specific-pathogen-free conditions for at least one week prior to surgery. Twenty-four hours before surgery, 5×10^6 DBT cells were harvested in 10 ml of DMEM supplemented with 10% heat-inactivated FBS, 10 U/ml penicillin and 10 μg/ml streptomycin and seeded in T75 cm^2 cell culture flasks (one flask per mouse). Just before surgery, cells from one flask were detached with trypsin-EDTA, recovered in DMEM supplemented with 10% heat-inactivated FBS, centrifuged/rinsed twice with MEM (serum free) and resuspended at 10^6 cells/u1 of ice-cold MEM (ready for injection). Mice were anesthetized with ketamine/xylazine (given […] i.p., 130 mg/kg ketamine/8.8 mg/kg xylazine) and placed in a stereotactic instrument (David Kopf Instruments, CA) on an isothermal pad (Deltaphase®, Braintree Scientific, Inc, Braintree, Mass.). After midline incision of the scalp, a 25-G needle was used to perform a craniostomy at 2 mm cranial from bregma and 1.5 mm left lateral. […]"}, "GPR124": {"biological_target": "T1, GPR124 (Homo sapiens, UniProt Q96PE1)", "T1 construct": "endogenous in cells; host or cells: T98g human astrocytoma cells", "T1 sequence (Q96PE1 34-1338)": "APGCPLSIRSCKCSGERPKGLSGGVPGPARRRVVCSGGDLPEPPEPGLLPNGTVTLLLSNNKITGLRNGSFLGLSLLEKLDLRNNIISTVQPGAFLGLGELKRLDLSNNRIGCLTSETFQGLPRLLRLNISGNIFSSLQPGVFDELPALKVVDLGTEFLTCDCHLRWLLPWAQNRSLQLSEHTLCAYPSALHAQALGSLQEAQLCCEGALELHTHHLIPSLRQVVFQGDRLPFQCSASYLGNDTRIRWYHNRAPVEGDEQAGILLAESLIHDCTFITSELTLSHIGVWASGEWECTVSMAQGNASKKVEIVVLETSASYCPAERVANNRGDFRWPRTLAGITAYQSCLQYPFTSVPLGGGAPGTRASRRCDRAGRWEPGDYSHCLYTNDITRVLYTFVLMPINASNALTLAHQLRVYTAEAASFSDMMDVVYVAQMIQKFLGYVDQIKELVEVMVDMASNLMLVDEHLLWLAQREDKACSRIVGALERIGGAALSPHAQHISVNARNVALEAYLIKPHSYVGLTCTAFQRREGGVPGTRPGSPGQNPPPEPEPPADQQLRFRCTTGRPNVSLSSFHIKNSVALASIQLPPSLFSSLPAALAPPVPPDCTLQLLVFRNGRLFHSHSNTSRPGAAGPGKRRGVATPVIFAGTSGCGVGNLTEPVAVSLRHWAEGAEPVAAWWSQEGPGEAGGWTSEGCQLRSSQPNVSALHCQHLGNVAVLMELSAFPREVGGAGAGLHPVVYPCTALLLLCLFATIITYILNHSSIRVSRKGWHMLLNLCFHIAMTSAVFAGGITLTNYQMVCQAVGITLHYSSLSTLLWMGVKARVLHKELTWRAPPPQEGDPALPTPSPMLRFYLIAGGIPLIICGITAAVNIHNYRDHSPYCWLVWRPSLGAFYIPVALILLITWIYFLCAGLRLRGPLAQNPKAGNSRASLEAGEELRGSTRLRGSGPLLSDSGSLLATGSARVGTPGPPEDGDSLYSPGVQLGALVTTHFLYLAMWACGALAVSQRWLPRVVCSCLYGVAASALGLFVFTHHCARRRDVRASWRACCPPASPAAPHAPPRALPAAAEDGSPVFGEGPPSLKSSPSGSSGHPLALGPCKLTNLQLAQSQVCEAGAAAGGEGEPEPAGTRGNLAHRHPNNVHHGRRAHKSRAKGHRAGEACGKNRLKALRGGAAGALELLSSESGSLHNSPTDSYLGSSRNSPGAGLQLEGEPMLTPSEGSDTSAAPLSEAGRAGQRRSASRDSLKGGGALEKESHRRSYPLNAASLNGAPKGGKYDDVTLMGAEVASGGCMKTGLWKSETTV", "experiment": "siRNA knock-down of GPCR candidates, JWH-451 toxicity in T98g cells", "type": "cell-based", "conditions": "JWH-451 1 μM, siRNA targeting GPR124, viability after three days", "experimental": "To determine which of the gene candidate encodes for AAI receptors, an siRNA approach is used to knock down each candidate individually to determine which one prevents the toxic effect of JWH-451 and thus encodes for AAI receptors. The prediction is that knocking down AAI receptors prevents the cell death induced by JWH-451. T98g cells were treated with siRNA targeting each of the 39 GPCR gene candidates individually. The first experiment was designed to knock down each GPCR candidate using a mixture of 3 siRNAs thus maximize genetic targeting efficacy. Thus, cells were incubated with siRNA mixtures and then treated with JWH-451 (1 μM) and cell viability measured after three days. Only one mixture of siRNAs (that targeting GPR124) decreased the toxicity of JWH-451. […] Two of the three siRNAs knocked-down GPR124 expression by more than 80% over 4 days (FIG. 3b). […] The killing effect induced by JWH-451 is mediated by GPR124, a AAI receptor."}}}
{"smiles": "CCn1c(C)c(C(=O)c2ccc(C)c3ccccc23)c2ccccc21", "note": "[JWH-451, 1-Ethyl-2-methyl-3-(4-methyl-1-napthoyl)indole]", "values": [{"measurement": "tumor growth in vivo", "setting": "U251 flank tumors; daily i.p. injection 15 mg/Kg, U251 flank tumors, nude mice", "value": "significantly reduced tumor growth"}, {"measurement": "growth of U251 gliomas implanted in the flanks of nude mice", "setting": "U251 flank tumors; daily i.p. injections 5 mg/Kg (FIG. 5 legend), compared to controls", "value": "inhibits the growth"}, {"measurement": "brain macrophage density / number invading DBT tumors", "setting": "DBT tumors", "value": "two fold increase"}, {"measurement": "lymphocyte density / number invading DBT tumors", "setting": "DBT tumors", "value": "two fold increase"}, {"measurement": "JWH-451-induced killing of T98g cells when GPR124 mRNA expression is reduced", "setting": "GPR124", "value": "reduced"}]}
